Data taken from US12447119B2, “Oral care composition” (SUNSTAR AMERICAS, INC., priority 2019, dated 2025).

Experiment: Solubility of surfactant in an oral care composition (statement in Experiment 4)
Assay type: physicochemical
Conditions: compared with a monoglyceride and diglyceride mixture
From the text: The results of Experiment 4 are shown in FIG. 5 (represented by Table 6 below), which measures the toothpaste concentration that causes 50% cell hemolysis. […] Glyceryl monostearate is harder to dissolve in an oral care composition than monoglyceride and digylceride mixtures.

CCCCCCCCCCCCCCCCCC(=O)OCC(O)CO (stereo not shown) [Glyceryl monostearate, glyceryl monostearate]
solubility of the surfactant in an oral care composition: less soluble than a monoglyceride and diglyceride mixture
